Measured values reported in patent US8735129B2, “Ginsenoside glycosidase derived from the genus Terrabacter, and use thereof” (Korea Research Institute of Bioscience and Biotechnology, priority 2009, dated 2014).
Values joined by “and” are separate entries in the source; they are usually repeats but may differ in a detail not shown here. Identical values can stand only once. Like-named read-outs stand apart in the source and are kept apart here. Values belong to the compound of their own block, whether it stands above or below them.

Legend:
Format in all cases: biochemical, Terrabacter ginsenosidimutans Gsoil 3082
[1] = tested on: purified recombinant BGL-GYP17; test: Effects of metal ions and chemical agents on ginsenoside glycosidase activity (pNPGlc substrate)
recombinant Bgl-gyp17 [2] = test: Enzymatic hydrolysis of PPD-type ginsenosides (TLC, HPLC, NMR); details: 0.2 U enzyme, 50 mM sodium phosphate pH 7.0, 37° C., hydrolysis of glucoses at C-3
Protocol: In order to analyze the specificity and selectivity of the recombinant enzyme for the hydrolysis of glucose at the C-3 and C-20 positions of PPD-type ginsenoside, ginsenoside Rb1, Rb2, Rc, Rd, and Rg3 were used as substrates. Each reaction mixture containing 0.2 U enzyme, 50 mM sodium phosphate buffer 0.1% (w/v) (pH 7.0), and the substrate was incubated at 37° C. Each sample was withdrawn at regular intervals, and an equal volume of water-saturated butanol was added to stop the reaction. The n-butanol fraction was evaporated to dryness, and any residual material was dissolved in CH3OH and then examined by TLC HPLC or NMR analysis.

recombinant Bgl-gyp17 [3] = test: as above
Bgl-gyp17 = test: Substrate preference with chromogenic oNP and pNP glycosides; details: 2.0 mM substrate; for Relative activity (%): 50 mM sodium phosphate pH 7.0, 37° C., activity on ONPGlu = 100%
Protocol: 1 activity unit was defined as the release of o-nitrophenol or p-nitrophenol per minute. For analysis of substrate preference, 2.0 mM chromogenic oNP and pNP (p-nitrophenyl) were used as the substrates, and incubated at 37° C. for 5 minutes. The analyzed substrates (Sigma) were pNP-β-D-glucopyranoside, pNP-β-D-galactopyranoside, pNP-β-D-fucopyranoside, pNP-β-D-glucosaminide, pNP-β-L-arabinopyranoside, pNP-β-D-mannopyronoside, pNP-β-D-xylopyranoside, pNP-α-D-glucopyranoside, pNP-α-L-arabinopyranoside, pNP-α-L-arabinopyranoside, pNP-α-D-rhamnopyranoside, pNP-α-D-mannopyranoside, pNP-α-D-xylopyranoside, o-nitrophenol[oNP]-β-D-glucopyranoside, oNP-β-D-galactopyranoside, oNP-β-D-fucopyranoside, and oNP-β-D-galactopyranoside.
In order to examine the substrate specificity of Bgl-gyp17, it was incubated in 50 mM sodium phosphate buffer containing 2.0 mM βα and β-type p-NP (p-nitrophenyl) and oNP (O-nitrophenyl)-glycosidase at pH 7.0 and 37° C. […] The Km and Vmax for the hydrolysis of pNPGlc by ginsenoside glycosidase were determined using 0-2 mM substrate and the enzyme kinetics program reported by Cleland. The values measured by the program were 4.24 mM and 0.10 mmol*min^−1*mg of protein^−1 for pNpGlc.

[4] = 1 mM metal ion or reagent, 30 min at room temperature, pNPGlc substrate, 100% = 44.3 U/mg
[5] = 10 mM metal ion or reagent, 30 min at room temperature, pNPGlc substrate, 100% = 44.3 U/mg

- Relative activity (%) [1, 4]: 98.4 ± 4.89%
- Relative activity (%) [1, 5]: 102.5 ± 4.57%
Structure (SMILES): OCCS [Beta-Mercaptoethanol]

Structure (SMILES): CC(C)=CCC[C@](C)(O[C@@H]1O[C@H](CO[C@@H]2O[C@@H](CO)[C@H](O)[C@H]2O)[C@@H](O)[C@H](O)[C@H]1O)[C@H]1CC[C@]2(C)[C@@H]1[C@H](O)C[C@@H]1[C@@]3(C)CC[C@H](O[C@@H]4O[C@H](CO)[C@@H](O)[C@H](O)[C@H]4O)C(C)(C)[C@@H]3CC[C@]12C [C-Mc1, compound Mc1]
- conversion of the ginsenoside by the enzyme (product) (recombinant Bgl-gyp17 [2]): C-Mc

- Relative activity (%) [1, 4]: 91.8 ± 4.59%
- Relative activity (%) [1, 5]: 101.5 ± 5.23%
Structure (SMILES): [Ca+2].[Cl-].[Cl-] [CaCl2]

Structure (SMILES): [Cl-].[Cl-].[Co+2] [CoCl2]
- Relative activity (%) [1]: 100.9 ± 8.43% and 97.0 ± 5.04%

- Relative activity (%) [1, 4]: 84.7 ± 4.48%
- Relative activity (%) [1, 5]: 71.7 ± 5.07%
Structure (SMILES): [Cl][Cu][Cl] [CuCl2]

Structure (SMILES): CC(C)=CCCC(C)(OC1OC(COC2OCC(O)C(O)C2O)C(O)C(O)C1O)C1CCC2(C)C1C(O)CC1C3(C)CCC(OC4OC(CO)C(O)C(O)C4O)C(C)(C)C3CCC12C (stereo not drawn) [C—O, compound O]
- conversion of the ginsenoside by the enzyme (product) (recombinant Bgl-gyp17 [2]): C—Y

- Relative activity (%) [1, 4]: 96.7 ± 5.59%
- Relative activity (%) [1, 5]: 96.6 ± 5.14%
Structure (SMILES): O[C@@H](CS)[C@@H](O)CS [DTT]

- Relative activity (%) [1, 4]: 98.6 ± 6.49%
- Relative activity (%) [1, 5]: 96.6 ± 4.52%
Structure (SMILES): O=C(O)CN(CCN(CC(=O)O)CC(=O)O)CC(=O)O [EDTA]

Structure (SMILES): CC(C)=CCC[C@](C)(O[C@@H]1O[C@H](CO)[C@@H](O)[C@H](O)[C@H]1O)[C@H]1CC[C@]2(C)[C@@H]1[C@H](O)C[C@@H]1[C@@]3(C)CC[C@H](O[C@@H]4O[C@H](CO)[C@@H](O)[C@H](O)[C@H]4O[C@@H]4O[C@H](CO)[C@@H](O)[C@H](O)[C@H]4O)C(C)(C)[C@@H]3CC[C@]12C [Ginsenoside Rd]
- conversion of the ginsenoside by the enzyme (product) (recombinant Bgl-gyp17 [2]): converted into F2
- conversion of the ginsenoside by the enzyme (product) (recombinant Bgl-gyp17 [2]; listed as Rd): C—K

Structure (SMILES): [Cl][Hg][Cl] [Hg^2+, HgCl2]
- effect on Bgl-gyp17 activity [1]: strongly inhibited the activity

Structure (SMILES): [Cl-].[K+] [KCl]
- Relative activity (%) [1, 4]: 102.7 ± 4.65%
- Relative activity (%) [1, 5]: 96.2 ± 4.64%

- Relative activity (%) [1, 4]: 94.8 ± 5.10%
- Relative activity (%) [1, 5]: 95.2 ± 5.14%
Structure (SMILES): [Cl-].[Cl-].[Mg+2] [MgCl2]

- Relative activity (%) [1, 4]: 101.1 ± 5.45%
- Relative activity (%) [1, 5]: 96.9 ± 4.79%
Structure (SMILES): [Cl][Mn][Cl] [MnCl2]

Structure (SMILES): [Cl-].[Na+] [Nacl, NaCl]
- Relative activity (%) [1]: 102.3 ± 5.15% and 97.7 ± 4.51%

- concentration showing an inhibitory effect [1]: ≥ 10 mM
- Relative activity (%) [1, 4]: 94.8 ± 6.98%
- Relative activity (%) [1, 5]: 2.7 ± 3.22%
Structure (SMILES): CCCCCCCCCCCCOS(=O)(=O)[O-].[Na+] [SDS]

- Relative activity (%) [1, 4]: 92.8 ± 4.72%
- Relative activity (%) [1, 5]: 72.8 ± 4.27%
Structure (SMILES): [Cl-].[Cl-].[Zn+2] [ZnCl2]

Structure (SMILES): CC(C)=CCC[C@](C)(O[C@@H]1O[C@H](CO)[C@@H](O)[C@H](O)[C@H]1O)[C@H]1CC[C@]2(C)[C@@H]1[C@H](O)C[C@@H]1[C@@]3(C)CC[C@H](O)C(C)(C)[C@@H]3CC[C@]12C [compound K]
- time at which the final product was produced (recombinant Bgl-gyp17 [3]; Rb1 substrate, enzyme 1 mg/ml): 24 h

Structure (SMILES): CC(C)=CCC[C@](C)(O)[C@H]1CC[C@]2(C)[C@@H]1[C@H](O)C[C@@H]1[C@@]3(C)CC[C@H](O[C@@H]4O[C@H](CO)[C@@H](O)[C@H](O)[C@H]4O[C@@H]4O[C@H](CO)[C@@H](O)[C@H](O)[C@H]4O)C(C)(C)[C@@H]3CC[C@]12C [ginsenoside Rg3]
- conversion of the ginsenoside by the enzyme (product) (recombinant Bgl-gyp17 [2]): produced ginsenoside Rh2
- conversion of the ginsenoside by the enzyme (product) (recombinant Bgl-gyp17 [2]; listed as Rg3): PPD

Structure (SMILES): CC(C)=CCC[C@](C)(O[C@@H]1O[C@H](CO[C@@H]2O[C@H](CO)[C@@H](O)[C@H](O)[C@H]2O)[C@@H](O)[C@H](O)[C@H]1O)[C@H]1CC[C@]2(C)[C@@H]1[C@H](O)C[C@@H]1[C@@]3(C)CC[C@H](O)C(C)(C)[C@@H]3CC[C@]12C [gyp LXXV, gypenoside LXXV]
- time at which it started to appear (recombinant Bgl-gyp17 [3]; Rb1 substrate, enzyme 1 mg/ml): 10 min
- time of decrease to almost undetectable level (recombinant Bgl-gyp17 [3]; Rb1 substrate, enzyme 1 mg/ml): 24 h
- time of maximum level (recombinant Bgl-gyp17 [3]; Rb1 substrate, enzyme 1 mg/ml): 2 h
- conversion of the ginsenoside by the enzyme (product) (recombinant Bgl-gyp17 [2]): C—K

Structure (SMILES): CC(C)=CCC[C@](C)(O[C@@H]1O[C@H](CO[C@@H]2O[C@H](CO)[C@@H](O)[C@H](O)[C@H]2O)[C@@H](O)[C@H](O)[C@H]1O)[C@H]1CC[C@]2(C)[C@@H]1[C@H](O)C[C@@H]1[C@@]3(C)CC[C@H](O[C@@H]4O[C@H](CO)[C@@H](O)[C@H](O)[C@H]4O)C(C)(C)[C@@H]3CC[C@]12C [gyp XVII, gypenoside XVII]
- conversion of the ginsenoside (recombinant Bgl-gyp17 [3]; printed: when ginsenoside Rb1 was 0.1 mg/ml): subsequently converted into gyp LXXV
- conversion of the ginsenoside by the enzyme (product) (recombinant Bgl-gyp17 [2]): C—K

Structure (SMILES): O=[N+]([O-])c1ccccc1O[C@H]1O[C@H](CO)[C@H](O)[C@H](O)[C@H]1O [oNP-α-D-galactopyranoside]
- Relative activity (%) (Bgl-gyp17): 0%

Structure (SMILES): C[C@H]1O[C@@H](Oc2ccccc2[N+](=O)[O-])[C@H](O)[C@@H](O)[C@H]1O [oNP-β-D-fucopyranoside]
- Relative activity (%) (Bgl-gyp17): 15.88 ± 0.544%

Structure (SMILES): O=[N+]([O-])c1ccccc1O[C@@H]1O[C@H](CO)[C@H](O)[C@H](O)[C@H]1O [oNP-β-D-galatopyranoside]
- Relative activity (%) (Bgl-gyp17): 2.33 ± 0.081%

Structure (SMILES): O=[N+]([O-])c1ccccc1O[C@@H]1O[C@H](CO)[C@@H](O)[C@H](O)[C@H]1O [oNP-β-D-glucopyranoside]
- Relative activity (%) (Bgl-gyp17): 100.00 ± 3.542%
- activity toward substrate (Bgl-gyp17; pH 7.0, 37° C.): highest activity

Structure (SMILES): O=[N+]([O-])c1ccc(O[C@H]2O[C@H](CO)[C@@H](O)[C@H](O)[C@H]2O)cc1 [pNP-α-D-glucopyranoside]
- Relative activity (%) (Bgl-gyp17): 1.12 ± 0.214%

Structure (SMILES): O=[N+]([O-])c1ccc(O[C@H]2O[C@H](CO)[C@@H](O)[C@H](O)[C@@H]2O)cc1 [pNP-α-D-mannopyranoside]
- Relative activity (%) (Bgl-gyp17): 0%

Structure (SMILES): O=[N+]([O-])c1ccc(O[C@@H]2O[C@@H](CO)[C@H](O)[C@H]2O)cc1 [pNP-α-L-arabinofuranoside]
- Relative activity (%) (Bgl-gyp17): 0%

Structure (SMILES): O=[N+]([O-])c1ccc(O[C@@H]2OC[C@H](O)[C@H](O)[C@H]2O)cc1 [pNP-α-L-arabinopyranoside]
- Relative activity (%) (Bgl-gyp17): 0%

Structure (SMILES): C[C@@H]1O[C@@H](Oc2ccc([N+](=O)[O-])cc2)[C@H](O)[C@H](O)[C@H]1O [pNP-α-L-rhamnopyranoside]
- Relative activity (%) (Bgl-gyp17): 0%

Structure (SMILES): C[C@H]1O[C@@H](Oc2ccc([N+](=O)[O-])cc2)[C@H](O)[C@@H](O)[C@H]1O [pNP-β-D-fucopyranoside]
- Relative activity (%) (Bgl-gyp17): 6.98 ± 0.063%

Structure (SMILES): O=[N+]([O-])c1ccc(O[C@@H]2O[C@H](CO)[C@H](O)[C@H](O)[C@H]2O)cc1 [pNP-β-D-glactopyranoside]
- Relative activity (%) (Bgl-gyp17): 0%

Structure (SMILES): O=[N+]([O-])c1ccc(O[C@@H]2O[C@H](CO)[C@@H](O)[C@H](O)[C@H]2O)cc1 [pNP-β-D-glucopyranoside, p-nitrophenyl-β-D-glucopyranoside]
- Relative activity (%) (Bgl-gyp17): 89.52 ± 4.430%

Structure (SMILES): N[C@H]1[C@H](Oc2ccc([N+](=O)[O-])cc2)O[C@H](CO)[C@@H](O)[C@@H]1O [pNP-β-D-glucosaminide]
- Relative activity (%) (Bgl-gyp17): 0%

Structure (SMILES): O=[N+]([O-])c1ccc(O[C@@H]2O[C@H](CO)[C@@H](O)[C@H](O)[C@@H]2O)cc1 [pNP-β-D-mannopyranoside]
- Relative activity (%) (Bgl-gyp17): 0%

Structure (SMILES): O=[N+]([O-])c1ccc(O[C@@H]2OC[C@@H](O)[C@H](O)[C@H]2O)cc1 [pNP-β-D-xylopyranoside]
- Relative activity (%) (Bgl-gyp17): 0%

Structure (SMILES): O=[N+]([O-])c1ccc(OC2OCC(O)C(O)C2O)cc1 [pNP-β-L-binopyranoside]
- Relative activity (%) (Bgl-gyp17): 0%
